Results from patent US5239084A, “Substituted aminoalkyl biphenyl compounds” (Hoffmann-La Roche Inc., priority 1990, dated 1993).
pIC50: −log10 of the molar value. “And” between values parts separate entries of the source, which are not always exact repeats. Equal entries are not always repeated. Structures can show the parent of a compound that is named as a salt. Where two headings read alike, the source gives them in different places.

Experiments:
C. albicans 3153 = experiment: agar dilution method, C. albicans 3153; assay type: cell-based, Candida albicans; details: for MIC: Candida albicans, 3153, 48 h, alone, 37° C., 2 days
C. albicans H29 = experiment: agar dilution method, C. albicans H29; assay type: cell-based, Candida albicans; details: for MIC: Candida albicans, H29, 48 h, alone, 37° C., 2 days; for FIC: synergistic when FIC <0.5
C. albicans B5 = experiment: agar dilution method, C. albicans B5; assay type: cell-based, Candida albicans; details: for MIC: Candida albicans, B5, 48 h, alone, 37° C., 2 days
Candida albicans = experiment: agar dilution method, synergism with sterol biosynthesis inhibitors; assay type: cell-based; details: in combination with ketoconazole or terbinafine; synergistic when FIC <0.5
C. albicans B4 = experiment: agar dilution method, C. albicans B4; assay type: cell-based, Candida albicans; details: for MIC: Candida albicans, B4, 48 h, alone, 37° C., 2 days
[1] = target: T1, 2,3-epoxysqualene-lanosterol cyclase (Candida albicans, UniProt Q04782); experiment: inhibition of 2,3-epoxysqualene-lanosterol cyclase from Candida albicans (cell-free extract, 14C-squalene epoxide); assay type: biochemical
T1 construct: there was obtained a cell-free extract (CFE) as the supernatant; endogenous in cells; host or cells: Candida albicans culture, protoplasts ruptured, cell-free extract (10000 g supernatant)

C. albicans H12 = experiment: agar dilution method, C. albicans H12; assay type: cell-based, Candida albicans; details: for MIC: Candida albicans, H12, 48 h, alone, 37° C., 2 days
C. albicans 3152 = experiment: agar dilution method, C. albicans 3152; assay type: cell-based, Candida albicans
[2] = acute toxicity, single oral administration to mice; details: mouse, in vivo
Description: The IC50 values were determined graphically and were given in μg of test substance per mL. Table I hereinafter contains IC50 values determined in the above test for representative members of the class of compound defined by formula I as well as concerning the acute toxicity in the case of single oral administration to mice (LD50 in mg/kg).

[3] = in combination with ketoconazole
[4] = in combination with ketoconazole, synergistic when FIC <0.5
[5] = in combination with terbinafine
[6] = in combination with terbinafine, synergistic when FIC <0.5
[7] = in combination with ketoconazole, synergistic when FIC <0.5, hydrochloride
[8] = in combination with ketoconazole, hydrochloride

T1 sequence (Q04782 whole entry): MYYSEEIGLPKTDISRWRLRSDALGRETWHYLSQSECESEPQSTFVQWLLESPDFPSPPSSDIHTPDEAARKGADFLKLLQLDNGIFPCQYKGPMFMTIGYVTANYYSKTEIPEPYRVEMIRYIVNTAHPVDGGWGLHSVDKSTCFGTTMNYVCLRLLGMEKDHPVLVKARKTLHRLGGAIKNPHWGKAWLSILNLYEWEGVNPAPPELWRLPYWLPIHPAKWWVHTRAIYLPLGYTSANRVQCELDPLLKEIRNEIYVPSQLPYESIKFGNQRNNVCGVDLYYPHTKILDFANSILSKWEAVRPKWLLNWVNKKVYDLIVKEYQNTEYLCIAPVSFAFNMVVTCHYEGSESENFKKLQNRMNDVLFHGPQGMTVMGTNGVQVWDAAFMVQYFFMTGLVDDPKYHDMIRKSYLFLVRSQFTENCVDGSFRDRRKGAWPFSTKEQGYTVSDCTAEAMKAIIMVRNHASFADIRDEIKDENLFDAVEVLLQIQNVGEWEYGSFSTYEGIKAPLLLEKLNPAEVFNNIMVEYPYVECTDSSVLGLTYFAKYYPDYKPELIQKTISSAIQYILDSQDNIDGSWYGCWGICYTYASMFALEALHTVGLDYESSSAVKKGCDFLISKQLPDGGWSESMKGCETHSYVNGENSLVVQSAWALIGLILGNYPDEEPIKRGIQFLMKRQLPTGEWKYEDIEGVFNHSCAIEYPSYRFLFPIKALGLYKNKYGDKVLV

Compound | MIC (C. albicans 3153) | MIC of compound in combination (C. albicans 3153; [5]) | MIC (C. albicans H29) | MIC of compound in combination (C. albicans H29; [5]) | FIC (C. albicans H29; [5]) | MIC (C. albicans B5) | MIC of compound in combination (C. albicans B5; [5]) | FIC (C. albicans B5; [6]) | synergistic activity (Candida albicans) | MIC (C. albicans B4) | MIC of compound in combination (C. albicans B4; [5]) | FIC (C. albicans B4; [6]) | MIC (C. albicans H12) | FIC (C. albicans H12; [7]) | MIC of compound in combination (C. albicans H12; [5]) | FIC (C. albicans H12; [6]) | further results
C=CCN(C)Cc1ccc(-c2ccc(C(=O)c3ccc(Br)cc3)cc2)cc1 [Compound 20, 4'-[[(Allylmethylamino)methyl]-4-biphenylylp-bromophenyl ketone hydrochloride] | 1 µg/mL | 0.12 µg/mL | 1 µg/mL | 0.25 µg/mL | 0.50 | 1 µg/mL | 0.25 µg/mL | 0.5 | confirm the synergistic activity | 2 µg/mL | 0.50 µg/mL | 0.266 | 2 µg/mL | 0.156 and 0.078 | 0.25 µg/mL | 0.25 | MIC of compound in combination (C. albicans 3153; [3]): 0.12 µg/mL; FIC (C. albicans 3153; [4]): 0.156; FIC (C. albicans 3153; [6]): 0.375; MIC of compound in combination (C. albicans H29; [3]): 0.25 µg/mL; FIC (C. albicans H29; [3]): 0.375; MIC of compound in combination (C. albicans B5; [3]): 0.25 µg/mL; FIC (C. albicans B5; [4]): 0.25; MIC of compound in combination (C. albicans B4; [3]): 0.12 µg/mL; FIC (C. albicans B4; [4]): 0.093; IC50 ([1]; cell-free extract, pH 6.9, 30° C., 1 hour, read-out: IC50 (converted)): 30.9 nM
C=CCN(C)Cc1ccc(-c2ccc(C(=O)c3ccccc3)cc2)cc1 [Compound 14, 4'-[(allylmethylamino)methyl-4-biphenylylphenyl ketone hydrochloride] | 1 µg/mL | 0.25 µg/mL | 1 µg/mL | 0.25 µg/mL | 0.375 | 1 µg/mL | 0.25 µg/mL | 0.375 | confirm the synergistic activity | 2 µg/mL | 1 µg/mL | 0.531 | 1 µg/mL | 0.133 and 0.125 | 0.5 µg/mL | 0.516 | FIC (C. albicans 3153; in combination with terbinafine, synergistic when FIC <0.5, hydrochloride): 0.281 and 0.561; MIC (C. albicans 3152; Candida albicans, 48 h, alone, 37° C., 2 days): 1 µg/mL; MIC of compound in combination (C. albicans 3152; [8]): 0.06 µg/mL and 0.12 µg/mL; FIC (C. albicans 3152; [7]): 0.187 and 0.156; MIC of compound in combination (C. albicans H29; [8]): 0.06 µg/mL and 0.12 µg/mL; LD50 [2]: > 4000 mg/kg; MIC of compound in combination (C. albicans B5; [8]): 0.06 µg/mL and 0.12 µg/mL; FIC (C. albicans B5; [7]): 0.125 and 0.25; MIC of compound in combination (C. albicans B4; [8]): 0.12 µg/mL and 0.06 µg/mL; FIC (C. albicans B4; [7]): 0.078 and 0.040; pIC50 [1]: 7.28; MIC of compound in combination (C. albicans H12; [8]): 0.12 µg/mL and 0.06 µg/mL
